# How the values were obtained:
# Assay type in all cases: cell-based
# BCL-XL [1] = target: T1, BCL-XL (Homo sapiens, UniProt Q07817); test: Bcl-xL ELISA degradation in MOLT-4 cells, 6 h; conditions: for DC50: read-out: Bcl-xL ELISA in MOLT-4 degradation 6 h: Mean external-Abs DC50
# T1 construct: endogenous in cells; host or cells: MOLT-4
# Method: The letter codes for BCL-XL DC50 include: A (<0.01 μM); B (0.01-0.1 μM); C (>[…]); D (>0.5-1.0 μM); and E (>1.0 μM). The letter codes for Dmax % include A (>75%); B (50 to 75%); C (<50%).
# MOLT-4 cells = test: CTG (CellTiter-Glo) cell viability assay, MOLT-4; conditions: Homo sapiens, MOLT-4, 72 h, 3 day incubation, read-out: CTG Cell Viability Assay - MOLT-4 3 day: Average external-IC50
# In short: (§1)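 MOLT-4 and Caki-2 cells were seeded at 10,000 per well and treated with a 9-point, 1:3 dilution series from 10 μM top concentration (0.2% DMSO). After 3 days at 37 °C, 5% CO2, viability was read by CellTiter-Glo luminescence and IC50 fitted by three-parameter logistic.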
# Caki-2 cells = test: CTG (CellTiter-Glo) cell viability assay, Caki-2; conditions: Homo sapiens, 72 h, 3 day incubation, read-out: CTG Chempartner - Caki-2 3 day: Average external-IC50
# In short: as §1
# BCL-XL [2] = target: T1, BCL-XL; test: BCL-XL degradation assay, western blot in MOLT-4 cells, 16 h; conditions: western blot, MOLT-4 cells, 16 h; for Dmax: read-out: Bcl-xL WB in MOLT-4 degradation 16 h: Average Dmax %; for DC50: read-out: Bcl-xL WB in MOLT-4 degradation 16 h: Mean external-Abs DC50
# In short: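 MOLT-4 cells treated with compounds at 0.02-10 μM final for 16 hr at 37° C; lysates analysed by western blot with anti-BCL-xL, beta-actin and GAPDH loading controls, infrared imaging and densitometry; DC50 and Dmax % reported as letter codes.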
# T1 sequence (Q07817 whole entry): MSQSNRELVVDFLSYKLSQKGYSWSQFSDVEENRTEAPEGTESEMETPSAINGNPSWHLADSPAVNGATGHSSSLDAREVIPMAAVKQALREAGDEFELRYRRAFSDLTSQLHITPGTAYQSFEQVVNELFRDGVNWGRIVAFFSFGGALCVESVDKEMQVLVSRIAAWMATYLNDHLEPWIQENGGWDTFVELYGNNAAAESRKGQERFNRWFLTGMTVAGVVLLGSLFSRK
SMILES,Dmax (BCL-XL [1]) [%],DC50 (BCL-XL [1]) [nM],IC50 (MOLT-4 cells) [nM],Dmax (BCL-XL [2]) [%],DC50 (BCL-XL [2]) [nM],IC50 (Caki-2 cells) [µM]
Cc1ncsc1-c1ccc([C@H](C)NC(=O)[C@@H]2C[C@@H](O)CN2C(=O)[C@@H](NC(=O)CCc2ccc(S(=O)(=O)NC(=O)c3nc(N4CCc5cccc(C(=O)Nc6nc7ccccc7s6)c5C4)ccc3-c3cnn(CC4CCCCC4)c3C)cc2)C(C)(C)C)cc1 [I-123],> 75,10 to 100,< 100,> 75,< 10,1 to 10
Cc1ncsc1-c1ccc(CNC(=O)[C@@H]2C[C@@H](O)CC2C(=O)[C@@H](NC(=O)C2(F)CC2)C(C)(C)C)c(OCCCCCCNC(=O)c2nc(N3CCc4cccc(C(=O)Nc5nc6ccccc6s5)c4C3)ccc2-c2cnn(CC3CCCCC3)c2C)c1 (stereo partly drawn) [I-158],< 50,> 1000,1000 to 3000,50 to 75,100 to 500,> 10
Cc1ncsc1-c1ccc(CNC(=O)[C@@H]2C[C@@H](O)CN2C(=O)[C@@H](NC(=O)C2(F)CC2)C(C)(C)C)c(OCCCCCS(=O)(=O)NC(=O)c2nc(N3CCc4cccc(C(=O)Nc5nc6ccccc6s5)c4C3)ccc2-c2cnn(CC3CCCCC3)c2C)c1 [I-177],> 75,10 to 100,< 100,> 75,< 10,1 to 10
Cc1ncsc1-c1ccc([C@H](C)NC(=O)[C@@H]2C[C@@H](O)CN2C(=O)[C@@H](c2cc(OC3CCN(CCCS(=O)(=O)NC(=O)c4nc(N5CCc6cccc(C(=O)Nc7nc8ccccc8s7)c6C5)ccc4-c4cnn(CC5CCCCC5)c4C)CC3)no2)C(C)C)cc1 [I-178],50 to 75,10 to 100,100 to 1000,> 75,10 to 100,> 10
Cc1ncsc1-c1ccc([C@H](C)NC(=O)[C@@H]2C[C@@H](O)CN2C(=O)[C@H](NC(=O)CCCCCCCS(=O)(=O)NC(=O)c2nc(N3CCc4cccc(C(=O)Nc5nc6ccccc6s5)c4C3)ccc2-c2cnn(CC(C)C)c2C)C(C)(C)C)cc1 [I-179],> 75,10 to 100,100 to 1000,> 75,10 to 100,> 10
Cc1ncsc1-c1ccc(CNC(=O)[C@@H]2C[C@@H](O)CN2C(=O)[C@@H](NC(=O)C2(F)CC2)C(C)(C)C)c(OCCC2CCN(CC[C@H](CSc3ccccc3)Nc3ccc(S(=O)(=O)NC(=O)c4ccc(N5CCN(CC6=C(c7ccc(Cl)cc7)CCC(C)(C)C6)CC5)cc4)cc3S(=O)(=O)C(F)(F)F)CC2)c1 [I-183],50 to 75,100 to 500,< 100,> 75,< 10,> 10
Cc1ncsc1-c1ccc(CNC(=O)[C@@H]2C[C@@H](O)CN2C(=O)[C@@H](NC(=O)C2(F)CC2)C(C)(C)C)c(OCCCCCS(=O)(=O)NC(=O)c2nc(N3CCc4cccc(C(=O)Nc5nc6cccnc6s5)c4C3)ccc2-c2cnn(CC3CCCCC3)c2C)c1 [I-187],50 to 75,10 to 100,100 to 1000,> 75,10 to 100,> 10
Cc1ncsc1-c1ccc([C@H](C)NC(=O)[C@@H]2C[C@@H](O)CN2C(=O)[C@@H](NC(=O)C2CCN(c3ccc(S(=O)(=O)NC(=O)c4nc(N5CCc6cccc(C(=O)Nc7nc8ccccc8s7)c6C5)ccc4-c4cnn(CC5CCCCC5)c4C)cc3)CC2)C(C)(C)C)cc1 [I-195],> 75,10 to 100,< 100,> 75,< 10,1 to 10
C#Cc1ccc([C@H](CO)NC(=O)[C@@H]2C[C@@H](O)CN2C(=O)[C@@H](NC(=O)CCc2ccc(S(=O)(=O)NC(=O)c3nc(N4CCc5cccc(C(=O)Nc6nc7cccnc7s6)c5C4)ccc3-c3cnn(CC4CCCCC4)c3C)cc2)C(C)(C)C)cc1 [I-205],> 75,10 to 100,100 to 1000,> 75,< 10,> 10
C#Cc1ccc(CNC(=O)[C@@H]2C[C@@H](O)CN2C(=O)[C@@H](NC(=O)CCCS(=O)(=O)NC(=O)c2nc(N(C)c3cc(C)c(Nc4nc5ccccc5s4)nn3)ccc2-c2cnn(CC3CCCCC3)c2C)C(C)(C)C)cc1 [I-340],50 to 75,10 to 100,100 to 1000,> 75,100 to 500,> 10
C#Cc1ccc(CNC(=O)[C@@H]2C[C@@H](O)CN2C(=O)[C@@H](NC(=O)CCCCS(=O)(=O)NC(=O)c2nc(N(C)c3cc(C)c(Nc4nc5ccccc5s4)nn3)ccc2-c2cnn(CC3CCCCC3)c2C)C(C)(C)C)cc1 [I-345],50 to 75,100 to 500,1000 to 3000,> 75,100 to 500,> 10
Cc1ncsc1-c1ccc(CNC(=O)[C@@H]2C[C@@H](O)CN2C(=O)[C@@H](NC(=O)CCCS(=O)(=O)NC(=O)c2nc(N3CCc4cccc(C(=O)Nc5nc6cccnc6s5)c4C3)ccc2-c2cnn(CC3CCCCC3)c2C)C(C)(C)C)cc1 [I-351],> 75,100 to 500,> 3000,50 to 75,100 to 500,> 10

# Continued, in another order:
Dmax (BCL-XL [1]) [%],DC50 (BCL-XL [1]) [nM],IC50 (MOLT-4 cells) [nM],Dmax (BCL-XL [2]) [%],DC50 (BCL-XL [2]) [nM],SMILES,IC50 (Caki-2 cells) [µM]
> 75,100 to 500,1000 to 3000,> 75,10 to 100,Cc1cc(N(C)c2ccc(-c3cnn(CC4CCCCC4)c3C)c(C(=O)NS(=O)(=O)CCCCC(=O)N[C@H](C(=O)N3C[C@H](O)C[C@H]3C(=O)N[C@@H](C)c3ccc(-c4scnc4C)cc3)C(C)(C)C)n2)nnc1Nc1nc2ccccc2s1 [I-353],> 10
> 75,10 to 100,100 to 1000,> 75,10 to 100,Cc1ncsc1-c1ccc(CNC(=O)[C@@H]2C[C@@H](O)CN2C(=O)[C@@H](NC(=O)CCOCCOCCOCCOCCOCCOCC#Cc2ccc(OCCCc3sc(N4CCc5cccc(C(=O)Nc6nc7ccccc7s6)c5C4)nc3C(=O)O)cc2)C(C)(C)C)cc1 [I-383],1 to 10
50 to 75,100 to 500,< 100,> 75,10 to 100,C#Cc1ccc([C@H](C)NC(=O)[C@@H]2C[C@@H](O)CN2C(=O)[C@@H](NC(=O)CCCCCC(=O)N2CCN(CC[C@H](CSc3ccccc3)Nc3ccc(S(=O)(=O)NC(=O)c4ccc(N5CCN(CC6=C(c7ccc(Cl)cc7)CCC(C)(C)C6)CC5)cc4)cc3S(=O)(=O)C(F)(F)F)CC2)C(C)(C)C)cc1 [I-388],> 10
< 50,> 1000,< 100,> 75,10 to 100,Cc1ncsc1-c1ccc(CNC(=O)[C@@H]2C[C@@H](O)CN2C(=O)[C@@H](NC(=O)CCCCCC(=O)N2CCN(CC[C@H](CSc3ccccc3)Nc3ccc(S(=O)(=O)NC(=O)c4ccc(N5CCN(CC6=C(c7ccc(Cl)cc7)CCC(C)(C)C6)CC5)cc4)cc3S(=O)(=O)C(F)(F)F)CC2)C(C)(C)C)cc1 [I-389],1 to 10
50 to 75,10 to 100,< 100,> 75,< 10,Cc1ncsc1-c1ccc(CNC(=O)[C@@H]2C[C@@H](O)CN2C(=O)[C@@H](NC(=O)C2(F)CC2)C(C)(C)C)c(OCCN2CCN(CC[C@H](CSc3ccccc3)Nc3ccc(S(=O)(=O)NC(=O)c4ccc(N5CCN(CC6=C(c7ccc(Cl)cc7)CCC(C)(C)C6)CC5)cc4)cc3S(=O)(=O)C(F)(F)F)CC2)c1 [I-394],> 10

# From patent US20250197387A1, “BCL-XL DEGRADERS AND USES THEREOF” (Kymera Therapeutics, Inc., priority 2021, published 2025)
